Each compound was assayed against mGluR5 (allosteric site, [3H]MPEP) (Homo sapiens, UniProt P41594) (assay: [3H]MPEP radioligand filtration binding assay on membrane homogenates). Settings: 5 nM [3H]MPEP; Ki from IC50 by Cheng and Prusoff equation.
Procedure: Binding assays were performed as described in [J. A. O'Brien et al. Mol. Pharmacol., 2003, 64, 731-740] with slight modifications. Briefly, after thawing, the membrane homogenates were resuspended in 50 mM Tris-HCl, 0.9% NaCl binding buffer at pH 7.4 to a final assay concentration of 40 μg protein/well for [^3H]2-methyl-6-phenylethynyl-pyridine ([^3H] MPEP) (American Radiolabeled Chemicals, Inc., St. Louis, Mo.) filtration binding. Incubations included 5 nM [^3H] MPEP, membranes and either buffer or varying concentrations of compound. Samples were incubated for 60 min at room temperature with shaking. Non-specific binding was defined with 10 μM MPEP. After incubation, samples were filtered over a GF/C filter (presoaked in 0.25% polyethyleneimine (PEI)) and then washed 4 times using a Tomtec® Harvester 96® Mach III cell harvester (Tomtec, Hamden, Conn.) with 0.5 mL ice-cold 50 mM Tris-HCl (pH 7.4).
IC50 values were derived from the inhibition curve and Ki values were calculated according to the Cheng and Prusoff equation of Ki=IC50/(1+[L]/Kd) described in [Y. Cheng and W. H. Prusoff Biochem. Pharmacol. 1973, 22, 3099-3108] where [L] is the concentration of radioligand and Kd is its dissociation constant at the receptor, derived from the saturation isotherm.

Sequence of mGluR5 (allosteric site, [3H]MPEP) (P41594 21-1212): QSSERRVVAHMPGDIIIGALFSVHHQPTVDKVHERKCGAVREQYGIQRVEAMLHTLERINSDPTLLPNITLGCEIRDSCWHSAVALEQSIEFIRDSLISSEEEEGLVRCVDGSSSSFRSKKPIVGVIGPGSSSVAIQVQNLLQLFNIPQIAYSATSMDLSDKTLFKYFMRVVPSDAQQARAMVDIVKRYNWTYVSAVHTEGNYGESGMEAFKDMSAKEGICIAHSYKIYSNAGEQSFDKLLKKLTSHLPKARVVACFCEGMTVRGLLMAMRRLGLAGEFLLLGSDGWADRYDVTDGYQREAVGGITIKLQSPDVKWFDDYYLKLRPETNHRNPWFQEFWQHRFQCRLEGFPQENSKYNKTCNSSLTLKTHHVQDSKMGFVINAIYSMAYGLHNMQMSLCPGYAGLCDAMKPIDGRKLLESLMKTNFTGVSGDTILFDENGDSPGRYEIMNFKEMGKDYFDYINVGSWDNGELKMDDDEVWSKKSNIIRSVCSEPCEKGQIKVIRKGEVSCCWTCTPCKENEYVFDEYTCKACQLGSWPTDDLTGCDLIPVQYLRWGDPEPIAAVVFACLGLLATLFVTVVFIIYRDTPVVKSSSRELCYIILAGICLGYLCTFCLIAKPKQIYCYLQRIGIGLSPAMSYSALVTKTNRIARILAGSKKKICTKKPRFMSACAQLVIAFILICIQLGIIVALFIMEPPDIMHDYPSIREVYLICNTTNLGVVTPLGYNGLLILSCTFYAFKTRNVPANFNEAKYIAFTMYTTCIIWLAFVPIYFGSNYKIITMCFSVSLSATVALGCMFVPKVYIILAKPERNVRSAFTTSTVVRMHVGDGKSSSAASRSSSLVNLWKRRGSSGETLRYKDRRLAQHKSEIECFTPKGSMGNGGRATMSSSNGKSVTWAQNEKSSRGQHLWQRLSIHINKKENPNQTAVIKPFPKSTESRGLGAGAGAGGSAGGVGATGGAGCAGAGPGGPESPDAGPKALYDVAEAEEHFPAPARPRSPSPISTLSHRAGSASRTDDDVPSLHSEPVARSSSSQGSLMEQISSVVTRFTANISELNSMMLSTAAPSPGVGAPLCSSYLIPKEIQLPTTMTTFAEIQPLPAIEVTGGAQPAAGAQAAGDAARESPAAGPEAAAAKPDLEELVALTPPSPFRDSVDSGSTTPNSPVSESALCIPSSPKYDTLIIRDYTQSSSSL

| Ki | SMILES |
| --- | --- |
| 250 nM | O=C(N[C@H]1CCC[C@]2(CCN(c3cccc(Cl)c3)C2=O)C1)c1ccccn1 (racemic) [Example 2, cis-pyridine-2-carboxylic acid [2-(3-chloro-phenyl)-1-oxo-2-aza-spiro[4.5]dec-7-yl]-amide] |
| 74 nM | Cc1cccc(C(=O)N[C@H]2CCC[C@]3(CCN(c4cccc(Cl)c4)C3=O)C2)n1 (relative stereo) [Example 4, cis-6-Methyl-pyridine-2-carboxylic acid [2-(3-chloro-phenyl)-1-oxo-2-aza-spiro[4.5]dec-7-yl]-amide] |
| 190 nM | Cc1cccc(C(=O)N[C@H]2CCC[C@]3(CCN(c4cccc(C)n4)C3=O)C2)n1 (relative stereo) [Example 23, cis-6-Methyl-pyridine-2-carboxylic acid [2-(6-methyl-pyridin-2-yl)-1-oxo-2-aza-spiro[4.5]dec-7-yl]-amide] |

Each compound was assayed against T1, rat metabotropic glutamate receptor 5 (rmGluR5) (Rattus norvegicus, UniProt P31424) (assay: Calcium mobilization (FLIPR) assay for negative allosteric modulation, EC80 glutamate, rmGluR5 in HEK 293). Settings: HEK293; rmGluR5, inhibition of EC80 glutamate response; read-out: FLIPR maximum inhibition.
T1 construct: expressed in transfected cells
T1 sequence (P31424 21-1203): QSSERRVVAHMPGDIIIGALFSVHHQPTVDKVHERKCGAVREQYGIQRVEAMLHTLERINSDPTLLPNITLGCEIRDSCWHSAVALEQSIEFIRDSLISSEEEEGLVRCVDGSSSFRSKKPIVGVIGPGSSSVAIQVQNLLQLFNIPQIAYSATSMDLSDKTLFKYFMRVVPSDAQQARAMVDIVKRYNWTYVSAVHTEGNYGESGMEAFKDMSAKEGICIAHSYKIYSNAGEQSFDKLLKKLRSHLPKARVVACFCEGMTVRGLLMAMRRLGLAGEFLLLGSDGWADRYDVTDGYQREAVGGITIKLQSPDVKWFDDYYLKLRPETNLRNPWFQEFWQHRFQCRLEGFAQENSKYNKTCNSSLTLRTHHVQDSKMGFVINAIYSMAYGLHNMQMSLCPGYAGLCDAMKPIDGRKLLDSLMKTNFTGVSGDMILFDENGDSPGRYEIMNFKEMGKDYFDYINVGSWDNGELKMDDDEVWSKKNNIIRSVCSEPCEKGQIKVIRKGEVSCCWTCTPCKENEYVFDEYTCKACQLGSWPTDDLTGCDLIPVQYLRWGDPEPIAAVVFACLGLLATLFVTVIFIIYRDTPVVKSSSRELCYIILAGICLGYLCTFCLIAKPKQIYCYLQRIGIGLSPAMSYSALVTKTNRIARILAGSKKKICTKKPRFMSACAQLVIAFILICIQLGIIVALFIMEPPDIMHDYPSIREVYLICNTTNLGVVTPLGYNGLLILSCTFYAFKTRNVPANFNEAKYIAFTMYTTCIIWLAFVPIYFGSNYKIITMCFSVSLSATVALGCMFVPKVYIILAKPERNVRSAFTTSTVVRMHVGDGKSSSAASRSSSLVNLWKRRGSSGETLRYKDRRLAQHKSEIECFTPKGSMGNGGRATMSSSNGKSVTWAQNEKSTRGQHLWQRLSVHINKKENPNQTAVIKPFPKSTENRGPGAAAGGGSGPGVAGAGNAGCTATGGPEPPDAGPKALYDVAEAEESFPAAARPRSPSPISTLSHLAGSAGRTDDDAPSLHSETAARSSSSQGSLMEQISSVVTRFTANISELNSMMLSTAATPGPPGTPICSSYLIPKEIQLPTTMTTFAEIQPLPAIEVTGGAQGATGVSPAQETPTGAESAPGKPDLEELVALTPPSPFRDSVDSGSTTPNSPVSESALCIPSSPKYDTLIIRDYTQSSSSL
Assay type: cell-based
Procedure: The cDNA for rat metabotropic glutamate receptor 5 (rmGluR5) and the cDNA for human metabotropic glutamate receptor 5 (hmGluR5) were generous gifts from S. Nakanishi (Kyoto University, Kyoto, Japan). The rmGluR5 or hmGluR5 was stably expressed in a HEK 293 cell line and grown in Dulbecco's Modified Eagle Medium (DMEM) (Invitrogen, Carlsbad, Calif.) with supplements (10% bovine calf serum, 4 mM glutamine, 100 units/mL penicillin, 100 μg/mL streptomycin and 0.75 mM G1418) at 37° C., 5% CO2. Twenty-four hours prior to assay, cells were seeded into 384-well black wall microtiter plates coated with poly-D-lysine. Just prior to assay, media was aspirated and cells dye-loaded (25 μL/well) with 3 μM Fluo-4/0.01% pluronic acid in assay buffer (Hank's Balanced Saline Solution (HBSS)): 150 mM NaCl, 5 mM KCl, 1 mM CaCl2, 1 mM MgCl2, plus 20 mM N-2-Hydroxyethylpiperazine-N′-2-ethanesulfonic acid (HEPES), pH 7.4, 0.1% bovine serum albumin (BSA) and 2.5 mM probenicid) for 1 hour in 5% CO2 at 37° C. After excess dye was discarded, cells were washed in assay buffer and layered with a final volume equal to 30 μL/well. Basal fluorescence is monitored in a fluorometric imaging plate reader (FLIPR) (Molecular Devices, Sunnyvale, Calif.) with an excitation wavelength of 488 nm and an emission range of 500 to 560 nm. Laser excitation energy was adjusted so that basal fluorescence readings were approximately 10,000 relative fluorescent units. Cells were stimulated with an EC20 or an EC80 concentration of glutamate in the presence of a compound to be tested, both diluted in assay buffer, and relative fluorescent units were measured at defined intervals (exposure=0.6 sec) over a 3 min period at room temperature. Basal readings derived from negative controls were subtracted from all samples. Maximum change in fluorescence was calculated for each well. Concentration-response curves derived from the maximum change in fluorescence were analyzed by nonlinear regression (Hill equation). A negative modulator can be identified from these concentration-response curves if a compound produces a concentration dependent inhibition of the EC80 glutamate response.

| SMILES | Emax |
| --- | --- |
| O=C(N[C@H]1CCC[C@]2(CCN(c3cccc(Cl)c3)C2=O)C1)c1ccccn1 (racemic) [Example 2, cis-pyridine-2-carboxylic acid [2-(3-chloro-phenyl)-1-oxo-2-aza-spiro[4.5]dec-7-yl]-amide] | 81 to 99% |
| Cc1cccc(C(=O)N[C@H]2CCC[C@]3(CCN(c4cccc(Cl)c4)C3=O)C2)n1 (relative stereo) [Example 4, cis-6-Methyl-pyridine-2-carboxylic acid [2-(3-chloro-phenyl)-1-oxo-2-aza-spiro[4.5]dec-7-yl]-amide] | 81 to 99% |
| Cc1cccc(C(=O)N[C@H]2CCC[C@]3(CCN(c4cccc(C)n4)C3=O)C2)n1 (relative stereo) [Example 23, cis-6-Methyl-pyridine-2-carboxylic acid [2-(6-methyl-pyridin-2-yl)-1-oxo-2-aza-spiro[4.5]dec-7-yl]-amide] | 81 to 99% |
| Cc1cccc(C(=O)N[C@H]2CCC[C@]3(CCN(c4cncc(C)n4)C3=O)C2)n1 (relative stereo) [Example 40, cis-6-Methyl-pyridine-2-carboxylic acid [2-(6-methyl-pyrazin-2-yl)-1-oxo-2-aza-spiro[4.5]dec-7-yl]-amide] | 81 to 99% |
| Cc1cccc(C(=O)N[C@H]2CCC[C@]3(CCN(c4cccc(C#N)n4)C3=O)C2)n1 (relative stereo) [Example 43, cis-6-Methyl-pyridine-2-carboxylic acid [2-(6-cyano-pyridin-2-yl)-1-oxo-2-aza-spiro[4.5]dec-7-yl]-amide] | 81 to 99% |
| O=C(N[C@H]1CCC[C@]2(CCN(c3cccc(Cl)c3)C2=O)C1)c1ccccn1 (single isomer, unassigned) [Example 6] | 81 to 99% |
| O=C(N[C@H]1CCC[C@@]2(CCN(c3cccc(Cl)c3)C2=O)C1)c1ccccn1 [Example 1, trans-Pyridine-2-carboxylic acid [2-(3-chloro-phenyl)-1-oxo-2-aza-spiro[4.5]dec-7-yl]amide] | 81 to 99% |
| Cc1cccc(N2CCC3(CCCC(NC(=O)c4cccc(Cl)c4)C3)C2=O)n1 (stereo not shown) [Example 8, 3-Chloro-N-[2-(6-methyl-pyridin-2-yl)-1-oxo-2-aza-spiro[4.5]dec-7-yl]-benzamide] | 81 to 99% |
| Cc1cccc(N2CC[C@@]3(CCC[C@@H](NC(=O)c4cccc(F)c4)C3)C2=O)n1 [Example 28, 3-Fluoro-N-[(5R,7R)-2-(6-methyl-pyridin-2-yl)-1-oxo-2-aza-spiro[4.5]dec-7-yl]-benzamide] | 81 to 99% |
| Cc1cccc(C(=O)N[C@H]2CCC[C@]3(CCN(c4ccccn4)C3=O)C2)n1 [Example 45, 6-Methyl-pyridine-2-carboxylic acid (1-oxo-2-pyridin-2-yl-2-aza-spiro[4.5]dec-7-yl)-amide] | 81 to 99% |

Second part, the compound after the results:

| Emax | SMILES |
| --- | --- |
| 81 to 99% | Cc1cccc(C(=O)N[C@H]2CCC[C@]3(CCN(c4ccccc4)C3=O)C2)n1 (relative stereo) [Example 46, cis-6-Methyl-pyridine-2-carboxylic acid (1-oxo-2-phenyl-2-aza-spiro[4.5]dec-7-yl)-amide] |
| 81 to 99% | Cc1cccc(N2CC[C@]3(CCC[C@H](NC(=O)c4cccc(C)n4)C3)C2=O)c1 (relative stereo) [Example 47, cis-6-Methyl-pyridine-2-carboxylic acid (1-oxo-2-m-tolyl-2-aza-spiro[4.5]dec-7-yl)-amide] |
| 81 to 99% | Cc1ccnc(N2CC[C@]3(CCC[C@H](NC(=O)c4cccc(C)n4)C3)C2=O)c1 (relative stereo) [Example 48, cis-6-Methyl-pyridine-2-carboxylic acid [2-(4-methyl-pyridin-2-yl)-1-oxo-2-aza-spiro[4.5]dec-7-yl]-amide] |
| 81 to 99% | Cc1ccc(N2CC[C@]3(CCC[C@H](NC(=O)c4cccc(C)n4)C3)C2=O)nc1 (relative stereo) [Example 49, cis-6-Methyl-pyridine-2-carboxylic acid [2-(5-methyl-pyridin-2-yl)-1-oxo-2-aza-spiro[4.5]dec-7-yl]-amide] |
| 81 to 99% | Cc1cccc(C(=O)N[C@H]2CCC[C@]3(CCN(c4ncccc4C)C3=O)C2)n1 (relative stereo) [Example 50, cis-6-Methyl-pyridine-2-carboxylic acid [2-(3-methyl-pyridin-2-yl)-1-oxo-2-aza-spiro[4.5]dec-7-yl]-amide] |
| 81 to 99% | Cc1cccc(C(=O)N[C@H]2CCC[C@]3(CCN(c4ccccc4F)C3=O)C2)n1 (relative stereo) [Example 51, cis-6-Methyl-pyridine-2-carboxylic acid [2-(2-fluoro-phenyl)-1-oxo-2-aza-spiro[4.5]dec-7-yl]-amide] |
| 81 to 99% | Cc1cc(N2CC[C@]3(CCC[C@H](NC(=O)c4cccc(C)n4)C3)C2=O)ccn1 (relative stereo) [Example 52, cis-6-Methyl-pyridine-2-carboxylic acid [2-(2-methyl-pyridin-4-yl)-1-oxo-2-aza-spiro[4.5]dec-7-yl]-amide] |
| 81 to 99% | N#Cc1cccc(N2CC[C@]3(CCC[C@H](NC(=O)c4cccc(F)c4)C3)C2=O)n1 (relative stereo) [Example 53, cis-N-[2-(6-Cyano-pyridin-2-yl)-1-oxo-2-aza-spiro[4.5]dec-7-yl]-3-fluoro-benzamide] |
| 81 to 99% | O=C(N[C@H]1CCC[C@]2(CCN(c3cc(F)cc(F)c3)C2=O)C1)c1ccccn1 (relative stereo) [Example 54, cis-Pyridine-2-carboxylic acid [2-(3,5-difluoro-phenyl)-1-oxo-2-aza-spiro [4.5]dec-7-yl]-amide] |
| 81 to 99% | Cc1cncc(C(=O)N[C@H]2CCC[C@]3(CCN(c4cc(F)cc(F)c4)C3=O)C2)n1 (relative stereo) [Example 55, cis-6-Methyl-pyrazine-2-carboxylic acid [2-(3,5-difluoro-phenyl)-1-oxo-2-aza-spiro [4.5]dec-7-yl]-amide] |
| 81 to 99% | O=C(N[C@H]1CCC[C@]2(CCN(c3cc(F)cc(F)c3)C2=O)C1)c1cnccn1 (relative stereo) [Example 56, cis-Pyrazine-2-carboxylic acid [2-(3,5-difluoro-phenyl)-1-oxo-2-aza-spiro [4.5]dec-7-yl]-amide] |
| 81 to 99% | Cc1nccc(C(=O)N[C@H]2CCC[C@]3(CCN(c4ccc(F)cn4)C3=O)C2)n1 (relative stereo) [Example 57, cis-2-Methyl-pyrimidine-4-carboxylic acid [2-(5-fluoro-pyridin-2-yl)-1-oxo-2-aza-spiro [4.5]dec-7-yl]-amide] |
